Assay results published in patent US11000033B2, “Ketone or oxime compound, and herbicide” (NISSAN CHEMICAL CORPORATION, priority 2014, dated 2021).

Tests used:
Assay type in all cases: in vivo
Monochoria vaginalis = test: Test Example 2: herbicidal activity, application during weed generation in submerged conditions (symbol C); settings: Table 23; application herbicide amount 320 g/ha; grade 0-5 by criteria of Test Example 1
Outline: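 Visual herbicidal ratings, taken three weeks after dosing, reflect post-emergence water-surface application to seedlings at one to two leaves. Conditions: co-sown weeds in alluvial soil flooded to 4 cm, greenhouse held at 25° C. to 30° C.; compound given as water-diluted emulsion at a fixed herbicide amount.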

Leptochloa chinensis = test: Test Example 3: herbicidal effect by foliage application, Wagner pot (symbol D); settings: application herbicide amount 320 g/ha
Outline: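 Herbicidal activity was rated three weeks after a foliar spray of diluted emulsion concentrate, applied at a predetermined dose to plants grown for 14 days from seed in waterlogged alluvial soil within a 25–30 °C greenhouse.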

Digitaria ciliaris = test: Test Example 4: herbicidal effect by soil treatment (symbol F); settings: 320 g/ha
Outline: (§1)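 Seeds were sown in sterilized diluvial soil, covered with about 1.5 cm of soil, and the soil surface was sprayed with a water-diluted emulsion of the compound at a predetermined rate. Plants grew in a greenhouse at 25° C. to 30° C.; effects were scored visually 3 weeks after application.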

Avena fatua = test: Test Example 4: herbicidal effect by soil treatment (symbol I); settings: 320 g/ha
Outline: as §1

corn [1] = test: Test Example 4: effect on crop by soil treatment (symbol c); settings: 320 g/ha
Outline: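 Grown at 25° C. to 30° C. in a greenhouse, the crops came from seed sown spot-wise in sterilized diluvial soil under roughly 1.5 cm of covering soil.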

rice = test: Test Example 4: effect on crop by soil treatment (symbol b); settings: 320 g/ha
Outline: (§2)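 Greenhouse culture at 25° C. to 30° C. followed sowing of seed in spots on sterilized diluvial soil with a soil cover close to 1.5 cm thick.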

rapeseed = test: Test Example 4: effect on crop by soil treatment (symbol g); settings: 320 g/ha
Outline: as §2

[2] = test system: Echinochloa crus-galli var. crus-galli; test: Test Example 5: herbicidal effect by foliage application, plastic box (symbol H); settings: 320 g/ha, 3 weeks after application
Outline: (§3)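 Effect is rated 3 weeks after a foliar spray of water-diluted emulsion concentrate at a predetermined herbicide amount. Plants had grown 14 days in a 25° C. to 30° C. greenhouse from seed in sterilized diluvial soil.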

Alopecurus myosuroides = test: Test Example 5: herbicidal effect by foliage application, plastic box (symbol J); settings: 320 g/ha, 3 weeks after application
Outline: as §3

corn [3] = test: Test Example 5: effect on crop by foliage application, plastic box (symbol c); settings: 320 g/ha, 3 weeks after application
Outline: (§4)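 Soil: sterilized diluvial. Container: plastic box, 21 × 13 cm, 7 cm deep. Sowing: spot-like, ~1.5 cm cover. Growth: greenhouse, 25° C. to 30° C.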

soybean = test: Test Example 5: effect on crop by foliage application, plastic box (symbol d); settings: 320 g/ha, 3 weeks after application
Outline: as §4

| SMILES | Herbicidal effect grade, C: Monochoria vaginalis (Monochoria vaginalis) | herbicidal effect on D (Leptochloa chinensis), grade 0-5 (Leptochloa chinensis) | F: Digitaria ciliaris, herbicidal effect grade (Digitaria ciliaris) | I: Avena fatua, herbicidal effect grade (Avena fatua) | c: corn, effect grade on crop (corn [1]) | b: directly sowed rice plant, effect grade on crop (rice) | g: rapeseed, effect grade on crop (rapeseed) | H: Echinochloa crus-galli var. crus-galli, herbicidal effect (criteria 0-5) [2] | J: Alopecurus myosuroides, herbicidal effect (criteria 0-5) (Alopecurus myosuroides) | c: corn, effect on crop (criteria 0-5) (corn [3]) | d: soybean, effect on crop (criteria 0-5) (soybean) |
| --- | --- | --- | --- | --- | --- | --- | --- | --- | --- | --- | --- |
| CC(CC1CC(O)=C(c2c(C)cc(C)cc2C)C1=O)=NOCC[S+](C)[O-] (stereo not drawn) [1-125] | 0 (Herbicidal ratio of 5% or lower (almost no effect)) | 5 (Herbicidal ratio of 90% or more (almost completely withered)) | 5 (Herbicidal ratio of 90% or more (almost completely withered)) | 3 (Herbicidal ratio of 40% or higher and lower than 70%) | 2 (Herbicidal ratio of 20% or higher and lower than 40%) | 5 (Herbicidal ratio of 90% or more (almost completely withered)) | 0 (Herbicidal ratio of 5% or lower (almost no effect)) | 5 (Herbicidal ratio of 90% or more (almost completely withered)) | 5 (Herbicidal ratio of 90% or more (almost completely withered)) | 3 (Herbicidal ratio of 40% or higher and lower than 70%) | 0 (Herbicidal ratio of 5% or lower (almost no effect)) |
| C=C(C)CN(CC)C(=O)OC1=C(c2c(C)cc(C)cc2C)C(=O)C(CC(C)=NOC)C1 (stereo not drawn) [1-130] | 0 (Herbicidal ratio of 5% or lower (almost no effect)) | 5 (Herbicidal ratio of 90% or more (almost completely withered)) | 0 (Herbicidal ratio of 5% or lower (almost no effect)) | 0 (Herbicidal ratio of 5% or lower (almost no effect)) | 0 (Herbicidal ratio of 5% or lower (almost no effect)) | 0 (Herbicidal ratio of 5% or lower (almost no effect)) | 0 (Herbicidal ratio of 5% or lower (almost no effect)) | 5 (Herbicidal ratio of 90% or more (almost completely withered)) | 5 (Herbicidal ratio of 90% or more (almost completely withered)) | 1 (Herbicidal ratio of 5% or higher and lower than 20%) | 1 (Herbicidal ratio of 5% or higher and lower than 20%) |
| CON=C(CC1CC(O)=C(c2c(C)cc(C)cc2C)C1=O)c1ccc(F)cc1 (stereo not drawn) [1-133] | 0 (Herbicidal ratio of 5% or lower (almost no effect)) | 0 (Herbicidal ratio of 5% or lower (almost no effect)) | 4 (Herbicidal ratio of 70% or higher and lower than 90%) | 0 (Herbicidal ratio of 5% or lower (almost no effect)) | 0 (Herbicidal ratio of 5% or lower (almost no effect)) | 0 (Herbicidal ratio of 5% or lower (almost no effect)) | 0 (Herbicidal ratio of 5% or lower (almost no effect)) | 4 (Herbicidal ratio of 70% or higher and lower than 90%) | 4 (Herbicidal ratio of 70% or higher and lower than 90%) | 0 (Herbicidal ratio of 5% or lower (almost no effect)) | 3 (Herbicidal ratio of 40% or higher and lower than 70%) |
| CON=C(C)CC1CC(OC(=O)CSc2ccccc2)=C(c2c(C)cc(C)cc2C)C1=O (stereo not drawn) [1-134] | 3 (Herbicidal ratio of 40% or higher and lower than 70%) | 5 (Herbicidal ratio of 90% or more (almost completely withered)) | 5 (Herbicidal ratio of 90% or more (almost completely withered)) | 2 (Herbicidal ratio of 20% or higher and lower than 40%) | 5 (Herbicidal ratio of 90% or more (almost completely withered)) | 5 (Herbicidal ratio of 90% or more (almost completely withered)) | 0 (Herbicidal ratio of 5% or lower (almost no effect)) | 5 (Herbicidal ratio of 90% or more (almost completely withered)) | 5 (Herbicidal ratio of 90% or more (almost completely withered)) | 5 (Herbicidal ratio of 90% or more (almost completely withered)) | 2 (Herbicidal ratio of 20% or higher and lower than 40%) |
| CC(CC1CC(O)=C(c2c(C)cc(C)cc2C)C1=O)=NOCC(C)Br (stereo not drawn) [1-135] | 0 (Herbicidal ratio of 5% or lower (almost no effect)) | 4 (Herbicidal ratio of 70% or higher and lower than 90%) | 5 (Herbicidal ratio of 90% or more (almost completely withered)) | 3 (Herbicidal ratio of 40% or higher and lower than 70%) | 0 (Herbicidal ratio of 5% or lower (almost no effect)) | 5 (Herbicidal ratio of 90% or more (almost completely withered)) | 2 (Herbicidal ratio of 20% or higher and lower than 40%) | 5 (Herbicidal ratio of 90% or more (almost completely withered)) | 5 (Herbicidal ratio of 90% or more (almost completely withered)) | 4 (Herbicidal ratio of 70% or higher and lower than 90%) | 1 (Herbicidal ratio of 5% or higher and lower than 20%) |
| CC(CC1CC(O)=C(c2c(C)cc(C)cc2C)C1=O)=NOCc1ccc(F)cc1 (stereo not drawn) [1-136] | 5 (Herbicidal ratio of 90% or more (almost completely withered)) | 2 (Herbicidal ratio of 20% or higher and lower than 40%) | 5 (Herbicidal ratio of 90% or more (almost completely withered)) | 3 (Herbicidal ratio of 40% or higher and lower than 70%) | 0 (Herbicidal ratio of 5% or lower (almost no effect)) | 2 (Herbicidal ratio of 20% or higher and lower than 40%) | 3 (Herbicidal ratio of 40% or higher and lower than 70%) | 5 (Herbicidal ratio of 90% or more (almost completely withered)) | 5 (Herbicidal ratio of 90% or more (almost completely withered)) | 3 (Herbicidal ratio of 40% or higher and lower than 70%) | 1 (Herbicidal ratio of 5% or higher and lower than 20%) |
